Experimental data as given in US6465395B2, “Substituted methylene pyrazolinones and the herbicidal use thereof” (BASF Aktiengesellschaft, priority 2000, dated 2002).

Legend:
Assay in all cases: Postemergence herbicidal evaluation
Assay type in all cases: in vivo
Design in all cases: scale not given here
[1] = tested on: ECHCG, Barnyardgrass, Echinochloa crus-galli, (L.) Beau
Description: (§1) The postemergence herbicidal activity of the compounds of the present invention is evaluated by the following tests. Seedling plants are grown in jiffy flats for about two weeks. The test compounds are dispersed in 80/20 (v/v) acetone/water mixtures containing 1.0% SUN-IT®II, a methylated seed oil, in sufficient quantities to provide the equivalent of about 0.006 kg/ha to 0.800 kg/ha of active compound when applied to the plants through a spray nozzle operating at 40 psi for a predetermined time. After spraying, the plants are placed on greenhouse benches and are cared for in accordance with conventional greenhouse procedures. Approximately two to three weeks after treatment, the seedling plants are examined and rated according to the rating system set forth below. Where more than one test is involved for a given compound, the data are averaged.

[2] = tested on: IPOSS, Morningglory spp., Ipomoea spp.
Description: as §1

[3] = tested on: SETVI, Foxtail, Green, Setaria viridis, (L.) Beau
Description: as §1

[4] = tested on: ORYSAT, Rice, Tebonnet, Oryza sativa, (L.) Tebonnet; settings: crop (rice)
Description: as §1

[5] = tested on: ABUTH, Velvetleaf, Abutilon theophrasti, Medic.
Description: as §1

[6] = tested on: AMBEL, Ragweed, Ambrosia artemisifolia, L.
Description: as §1

[7] = tested on: PANDI, Panicum, Fall, Panicum dichotomiflorum, Michx
Description: as §1

[8] = tested on: ZEAMX, Corn, Field, Zea mays, L.; settings: crop (corn)
Description: as §1

[9] = tested on: CHEAL, Lambsquarters, Chenopodium album, L.
Description: as §1

| Molecule | Herbicide rating ECHCG ([1]; 0.0125 kg/ha) | Herbicide rating ECHCG ([1]; 0.0250 kg/ha) | Herbicide rating ECHCG ([1]; 0.0500 kg/ha) | Herbicide rating ECHCG ([1]; 0.1000 kg/ha) | Herbicide rating SETVI ([3]; 0.0125 kg/ha) | Herbicide rating SETVI ([3]; 0.0250 kg/ha) | Herbicide rating SETVI ([3]; 0.0500 kg/ha) | Herbicide rating SETVI ([3]; 0.1000 kg/ha) | Herbicide rating ABUTH ([5]; 0.0125 kg/ha) | Herbicide rating ABUTH ([5]; 0.0250 kg/ha) | Herbicide rating ABUTH ([5]; 0.0500 kg/ha) | Herbicide rating ABUTH ([5]; 0.1000 kg/ha) | Herbicide rating AMBEL ([6]; 0.0125 kg/ha) | Herbicide rating AMBEL ([6]; 0.0250 kg/ha) | Herbicide rating AMBEL ([6]; 0.0500 kg/ha) | Herbicide rating AMBEL ([6]; 0.1000 kg/ha) | Herbicide rating ZEAMX ([8]; 0.0125 kg/ha) | Herbicide rating ZEAMX ([8]; 0.0250 kg/ha) | Herbicide rating ZEAMX ([8]; 0.0500 kg/ha) | Herbicide rating ZEAMX ([8]; 0.1000 kg/ha) | further results |
| --- | --- | --- | --- | --- | --- | --- | --- | --- | --- | --- | --- | --- | --- | --- | --- | --- | --- | --- | --- | --- | --- |
| 4,4′-[(Z,Z)-Dithiobis[(2,3-dihydro-3,3,4-trimethylbenzo[b]thien-5-yl)methylidyne]]bis[1-methyl-2-pyrazolin-5-one] S,S,S′,S′,-tetraoxide, 80:20 mixture with 4,4′-[(E,Z)-dithiobis[(2,3-dihydro-3,3,4-trimethyl-benzo[b]thien-5-yl)methylidyne]]bis[1-methyl-2-pyrazolin-5-one] S,S,S′,S′-tetraoxide [Example 7] | 7.0 | 7.0 | 8.0 | 9.0 | 7.0 | 7.0 | 9.0 | 9.0 | 3.0 | 4.0 | 5.0 | 7.0 | 4.0 | 7.0 | 9.0 | 9.0 | 0.0 | 0.0 | 0.0 | 2.0 | Herbicide rating IPOSS ([2]; 0.0125 kg/ha): 1.0; Herbicide rating IPOSS ([2]; 0.0250 kg/ha): 1.0; Herbicide rating IPOSS ([2]; 0.0500 kg/ha): 2.0; Herbicide rating IPOSS ([2]; 0.1000 kg/ha): 2.0; Herbicide rating ORYSAT ([4]; 0.0125 kg/ha): 3.5; Herbicide rating ORYSAT ([4]; 0.0250 kg/ha): 6.0; Herbicide rating ORYSAT ([4]; 0.0500 kg/ha): 7.0; Herbicide rating ORYSAT ([4]; 0.1000 kg/ha): 7.0; Herbicide rating PANDI ([7]; 0.0125 kg/ha): 5.0; Herbicide rating PANDI ([7]; 0.0250 kg/ha): 3.0; Herbicide rating PANDI ([7]; 0.0500 kg/ha): 7.0; Herbicide rating PANDI ([7]; 0.1000 kg/ha): 9.0 |
| COc1ccc(OC(=C2C=NN(C)C2=O)c2ccc3c(c2C)C(C)(C)CS3(=O)=O)cc1 [Example 3, 4-[(Z)-(2,3-Dihydro-3,3,4-trimethylbenzo-[b]thien-5-yl)(p-methoxyphenoxy)methylene]-1-methyl-2-pyrazolin-5-one, S,S-dioxide] | 2.0 | 3.0 | 4.0 | 6.0 | 1.0 | 3.0 | 5.0 | 7.0 | 2.0 | 4.0 | 7.0 | 7.0 | 2.0 | 4.0 | 7.0 | 7.0 | 0.0 | 0.0 | 0.0 | 2.0 | Herbicide rating CHEAL ([9]; 0.0125 kg/ha): 6.0; Herbicide rating CHEAL ([9]; 0.0250 kg/ha): 6.0; Herbicide rating CHEAL ([9]; 0.0500 kg/ha): 8.0; Herbicide rating CHEAL ([9]; 0.1000 kg/ha): 9.0 |
| Cc1c(C(=C2C=NN(C)C2=O)N(C)C)ccc2c1C(C)(C)CS2(=O)=O [Example 2, 4-[(Z)-(2,3-Dihydro-3,3,4-trimethylbenzo[b]thien-5-yl)(dimethylamino)methylene]-1-methyl-2-pyrazolin-5-one S,S-dioxide] | 0.0 | 0.0 | 0.0 | 0.0 | 0.0 | 0.0 | 0.0 | 0.0 | 0.0 | 0.0 | 0.0 | 0.0 | 0.0 | 0.0 | 0.0 | 0.0 | 0.0 | 0.0 | 0.0 | 0.0 | Herbicide rating CHEAL ([9]; 0.0125 kg/ha): 0.0; Herbicide rating CHEAL ([9]; 0.0250 kg/ha): 0.0; Herbicide rating CHEAL ([9]; 0.0500 kg/ha): 0.0; Herbicide rating CHEAL ([9]; 0.1000 kg/ha): 0.0 |
